Assay results as given in patent publication US20240108684A1, “DOSING REGIMENS FOR TREATMENT OF FUNGAL INFECTIONS” (priority 2016, published 2024).
Read-outs that look alike come from different tables or passages of the source. *1 amine or outer side, *2 acyl side, *3 side chain or, on linkers, in order; H or OH if unused. Where a SMILES comes first, the peptide text is derived from it. Bridges are numbered along the chain shown (N, C = ends). [ ]: non-standard residue; d: D form. The star is where a group is joined. Orn(4R-OH,5R-OCH2CH2NMe3+) = C[N+](C)(C)CCO[C@@H](N[*:3])[C@H](O)C[C@H](N[*:1])C(=O)[*:2]; pTerphenylCO(4''-OnC5H11) = CCCCCOc1ccc(-c2ccc(-c3ccc(C(=O)*)cc3)cc2)cc1; hTyr(3S-OH,4S-OH) = N[C@H](C(=O)O)[C@H](O)[C@@H](O)c1ccc(O)cc1; Pro(3S-OH,4S-Me) = C[C@H]1CN[C@H](C(=O)O)[C@H]1O; Hyp = O=C(O)[C@@H]1C[C@@H](O)CN1

Tests used:
C. albicans [1] = assay: Neutropenic murine disseminated candidiasis model, PK/PD; details: for 1 log kill dose / Static Dose: single IP dose
[2] = Modeling of CD101 total plasma concentrations versus MPC; details: modeling based on in vivo PK data
Description: (§1) Selection of resistance strains in vivo predominantly occurs over a range of drug concentrations falling between the MIC and MPC values. Dosing paradigms that result in plasma drug concentrations in excess of the MPC are therefore more desirable and effective in preventing the development of de novo mutants during the course of therapy (see, e.g., Drlica et al., J. Antimicrob. Chemother. 52:11-17, 2003). Currently approved treatment regimens for caspofungin, micafungin, and anidulafungin involve once-daily dosing at levels such that the Cmax is unlikely to be equivalent to or exceed the MPC at any point during treatment.

[3] = Multiple ascending dose IV study in healthy adult subjects (safety, PK); type: in vivo, human; details: for Accumulation Ratio AUC0-168 / Accumulation Ratio Cmax: last/first dose; for Cmax / AUC(0-t): human, plasma, intravenous; for AUC(0-t): read-out: AUC0-168
Description: A second study of CD101 administered by IV injection to healthy adult subjects was also performed. In this study, subjects in 3 cohorts of 8 subjects (6 active, 2 placebo) each were randomized to receive multiple IV doses of CD101 or placebo (normal saline) infused over 60 (±5) minutes. Dose levels of CD101 assessed follow an ascending multiple-dose regimen (100 mg×2 doses, 200 mg×2 doses, or 400 mg×3 doses).
Pharmacokinetics were determined by analyzing plasma and urine samples for concentration of CD101 obtained from subjects who received CD101 in each cohort at various time points after administration of CD101.

[4] = Single ascending dose IV study in healthy adult subjects (safety, PK); type: in vivo, human; details: for AUC(0-t): read-out: AUC0-168; for concentration at 144 h: read-out: C144
Description: In a first study, CD101 was administered by IV injection to healthy adult subjects. In this study, subjects in 4 cohorts of 8 subjects (6 active, 2 placebo) each were randomized to receive single IV doses of CD101 or placebo (normal saline) infused over 60 (±5) minutes. Dose levels of CD101 assessed follow an ascending single-dose regimen (50, 100, 200, or 400 mg).
Pharmacokinetics were first determined by analyzing plasma and urine samples for concentration of CD101 obtained from subjects who received CD101 in each cohort at various time points after administration of the single dose of the study drug.

[5] = Single dose plasma PK after IP doses; details: mouse, 64 mg/kg
C. albicans [6] = assay: Mutant prevention concentration (MPC); type: cell-based, Candida albicans
Description: As used herein, the term “mutant prevention concentration” or “MPC” refers to the concentration of a drug sufficient to suppress the development of all but very rare spontaneous mutants. The range of drug concentrations between the MIC and MPC represents a mutant selection window wherein de novo mutants are most likely to occur. Therapeutic regimens that maximize the duration of drug concentrations in excess of the MPC thereby minimize the potential for resistance development during the course of therapy.
as §1

[7] = 100 mg x2, 200 mg x2 or 400 mg x3 doses IV
[8] = human, plasma, 50 mg 1-hour IV infusion
[9] = human, plasma, 100 mg 1-hour IV infusion
[10] = human, plasma, 200 mg 1-hour IV infusion
[11] = human, plasma, 400 mg 1-hour IV infusion
[12] = single IV 50, 100, 200 or 400 mg

## CCCCCOc1ccc(-c2ccc(-c3ccc(C(=O)N[C@H]4C[C@@H](O)[C@@H](OCC[N+](C)(C)C)NC(=O)[C@@H]5[C@@H](O)[C@@H](C)CN5C(=O)[C@H]([C@@H](C)O)NC(=O)[C@H]([C@H](O)[C@@H](O)c5ccc(O)cc5)NC(=O)[C@@H]5C[C@@H](O)CN5C(=O)[C@H]([C@@H](C)O)NC4=O)cc3)cc2)cc1 [CD101] ({pTerphenylCO(4''-OnC5H11)}-[Orn(4R-OH,5R-OCH2CH2NMe3+)]T[Hyp][hTyr(3S-OH,4S-OH)]T[Pro(3S-OH,4S-Me)]; lactam 1-C)
C. albicans [1]; C. albicans 98-17
  1 log kill Ave 24 h AUC/MIC: 490
  Stasis Ave 24 h AUC/MIC: 274
C. albicans [1]; C. albicans 98-17, 7 days
  1 log kill dose: 2.73 mg/kg
  Static Dose: 1.34 mg/kg
C. albicans [1]; C. albicans 98-210
  1 log kill Ave 24 h AUC/MIC: 1574
  Stasis Ave 24 h AUC/MIC: 868
C. albicans [1]; C. albicans 98-210, 7 days
  1 log kill dose: 2.28 mg/kg
  Static Dose: 1.06 mg/kg
C. albicans [1]; C. albicans 580
  1 log kill Ave 24 h AUC/MIC: 1429
  Stasis Ave 24 h AUC/MIC: 948
C. albicans [1]; C. albicans 580, 7 days
  1 log kill dose: 2.03 mg/kg
  Static Dose: 1.20 mg/kg
C. albicans [1]; C. albicans K-1
  1 log kill Ave 24 h AUC/MIC: 6435
  Stasis Ave 24 h AUC/MIC: 3426
C. albicans [1]; C. albicans K-1, 7 days
  1 log kill dose: 5.26 mg/kg
  Static Dose: 2.52 mg/kg
C. albicans [1]; C. albicans and C. glabrata strains, 0.016-64 mg/kg once IP, 7 days
  Maximal kill: over 2 log10 CFU/kidney
[2]
  IV dose sufficient to generate concentrations in excess of 16 μg/ml (MPC): ≥ 150 mg
[3]; 100 mg (Day 1/Day 8)
  Accumulation Ratio AUC0-168: 1.30
  Accumulation Ratio Cmax: 1.14
[3]; [7]
  Drug-related AEs from laboratory abnormalities: no drug-related AEs resulting from clinically significant hematology or clinical chemistry laboratory abnormalities at any dose
  ECG, vital signs, physical exam: no safety issues related to ECGs, vital signs, or physical exam findings
  Serious and severe adverse events: no SAEs or severe AEs
  Severity and resolution of AEs: majority of AEs were mild, and all related AEs completely resolved by the end of the study
[3]; 200 mg (Day 1/Day 8)
  Accumulation Ratio AUC0-168: 1.43
  Accumulation Ratio Cmax: 1.17
[3]; 400 mg (Day 1/Day 8/Day 15)
  Accumulation Ratio AUC0-168: 1.55
  Accumulation Ratio Cmax: 1.34
[3]; 100 mg, 100 mg weekly, Day 1
  Cmax: 5670 ng/mL
  AUC(0-t): 299 µg·h/mL
[3]; 100 mg, 100 mg weekly, Day 8
  Cmax: 6490 ng/mL
  AUC(0-t): 390 µg·h/mL
[3]; 200 mg, 200 mg weekly, Day 1
  Cmax: 10600 ng/mL
  AUC(0-t): 570 µg·h/mL
[3]; 200 mg, 200 mg weekly, Day 8
  Cmax: 12400 ng/mL
  AUC(0-t): 813 µg·h/mL
[3]; 400 mg, 400 mg weekly, Day 1
  Cmax: 22700 ng/mL
  AUC(0-t): 1190 µg·h/mL
[3]; 400 mg, 400 mg weekly, Day 15
  Cmax: 30500 ng/mL
  AUC(0-t): 1840 µg·h/mL
[3]; multiple doses up to 400 mg
  Safety and tolerability: safe and well tolerated
[3]; primarily 400 mg cohort, most common with third dose
  Infusion reactions: Four subjects in the CD101 group experienced mild, transient infusion reactions
[4]; 400 mg 1-hour IV infusion
  Cmax: 22700 ng/mL
[4]; 50-400 mg single IV
  Dose proportionality: AUC and Cmax increased in a dose proportional manner
[4]; all dose levels
  Fraction of dose excreted in urine: < 1%
[4]; human, plasma, intravenous, incorporating data from later collection times, read-out: terminal t1/2
  half-life: 5.29 to 6.08 days
[4]; human, plasma, intravenous, through the first week of plasma collection, read-out: t1/2 (converted)
  half-life: > 3.33 days
[4]; human, plasma, intravenous, 50-400 mg, read-out: Volume of distribution (Vz and Vss)
  Vd: 33 to 48 L
[4]; human, plasma, intravenous, across the CD101 doses 50-400 mg, read-out: Total body clearance
  clearance: ~4 mL/min
[4]; human, plasma, intravenous, after start of 1-hour infusion, all doses
  Tmax: ~1 h
[4]; human, plasma, iv, 50 mg, 50 mg 1-hour IV infusion, read-out: t1/2 (converted)
  half-life: 3.58 days
[4]; human, plasma, iv, 100 mg, 100 mg 1-hour IV infusion, read-out: t1/2 (converted)
  half-life: 3.83 days
[4]; human, plasma, iv, 200 mg, 200 mg 1-hour IV infusion, read-out: t1/2 (converted)
  half-life: 3.79 days
[4]; human, plasma, iv, 400 mg, 400 mg 1-hour IV infusion, read-out: t1/2 (converted)
  half-life: 3.5 days
[4]; [8]
  AUC(0-t): 145 µg·h/mL
  concentration at 144 h: 481 ng/mL
[4]; human, plasma, 50 mg 1-hour IV infusion, read-out: Cmax
  Cmax: 2760 ng/mL
[4]; [9]
  AUC(0-t): 254 µg·h/mL
  concentration at 144 h: 854 ng/mL
[4]; human, plasma, 100 mg 1-hour IV infusion, read-out: Cmax
  Cmax: 4840 ng/mL
[4]; [10]
  AUC(0-t): 592 µg·h/mL
  concentration at 144 h: 2010 ng/mL
[4]; human, plasma, 200 mg 1-hour IV infusion, read-out: Cmax
  Cmax: 10900 ng/mL
[4]; [11]
  AUC(0-t): 1160 µg·h/mL
  concentration at 144 h: 3830 ng/mL
[4]; [12]
  Drug-related AEs from laboratory abnormalities: no drug-related AEs resulting from clinically significant hematology or clinical chemistry laboratory abnormalities at any dose
  ECG, vital signs, physical exam: no safety issues related to electrocardiograms (ECGs), vital signs, or physical exam findings
  Serious and severe adverse events: no serious adverse events (SAEs), severe adverse events (AEs), or dose-response relationships for overall AEs
  Severity and resolution of AEs: majority of AEs were mild, and all AEs completely resolved by the end of the study
[4]; single dose up to 400 mg
  Safety and tolerability: safe and well tolerated
[5]
  AUC(0-inf): 93 to 4050 µg·h/mL
  Cmax: 2600 to 77000 ng/mL
  half-life: 1680 to 2460 min
C. albicans [6]
  MPC: 16 µg/mL
